Reference: patent US9936701B2, “Herbicidal compounds” (Syngenta Participations AG, priority 2013, dated 2018)

Experiments:
[1] = test system: a variety of test species; experiment: Pre-emergence herbicidal activity (glasshouse, sprayed one day after sowing, evaluated after 13 days); type: in vivo; set-up: key: 5=total damage to plant; 0=no damage to plant; settings: application pre-emergence, rate 1000 g/Ha, scale 0-5
Method: Seeds of a variety of test species were sown in standard soil in pots. After cultivation for one day (pre-emergence) under controlled conditions in a glasshouse (at 24/16° C., day/night; 14 hours light; 65% humidity), the plants were sprayed with an aqueous spray solution derived from the formulation of the technical active ingredient in acetone/water (50:50) solution containing 0.5% Tween 20 (polyoxyethelyene sorbitan monolaurate, CAS RN 9005-64-5). The test plants were then grown in a glasshouse under controlled conditions (at 24/16° C., day/night; 14 hours light; 65% humidity) and watered twice daily. After 13 days, the test was evaluated (5=total damage to plant; 0=no damage to plant).

[2] = test system: a variety of test species; experiment: Post-emergence herbicidal activity (glasshouse, sprayed after 8 days cultivation, evaluated after 13 days); type: in vivo; set-up: key: 5=total damage to plant; 0=no damage to plant; settings: rate 1000 g/Ha, scale 0-5
Method: Seeds of a variety of test species were sown in standard soil in pots. After 8 days cultivation (post-emergence) under controlled conditions in a glasshouse (at 24/16° C., day/night; 14 hours light; 65% humidity), the plants were sprayed with an aqueous spray solution derived from the formulation of the technical active ingredient in acetone/water (50:50) solution containing 0.5% Tween 20 (polyoxyethelyene sorbitan monolaurate, CAS RN 9005-64-5). The test plants were then grown in a glasshouse under controlled conditions (at 24/16° C., day/night; 14 hours light; 65% humidity) and watered twice daily. After 13 days, the test was evaluated (5=total damage to plant; 0=no damage to plant).

SMILES | Pre-emergence herbicidal damage score, ABUTH [1] | Pre-emergence herbicidal damage score, ALOMY [1] | Pre-emergence herbicidal damage score, AMARE [1] | Pre-emergence herbicidal damage score, ECHCG [1] | Pre-emergence herbicidal damage score, SETFA [1] | Pre-emergence herbicidal damage score, ZEAMX [1] | ABUTH (Abutilon theophrasti) damage score, application post-emergence [2] | ALOMY (Alopecurus myosuroides) damage score, application post-emergence [2] | AMARE (Amaranthus retroflexus) damage score, application post-emergence [2] | ECHCG (Echinochloa crus-galli) damage score, application post-emergence [2] | SETFA (Setaria faberi) damage score, application post-emergence [2] | ZEAMX (Zea mays) damage score, application post-emergence [2]
CCCC1=C(Cl)C(=O)N(c2noc(C(C)C)c2C#N)C1O (stereo not shown) [A69] | 0 | 0 | 2 | 1 | 1 | 0 | 4 | 2 | 5 | 5 | 5 | 1
CCCC1=C(Cl)C(=O)N(c2noc(C)c2C#N)C1O (stereo not shown) [A70] | 0 | 1 | 5 | 4 | 3 | 1 | 2 | 3 | 5 | 5 | 5 | 1
CCCC1=C(Br)C(=O)N(c2noc(C(C)(C)C#N)c2C#N)C1OC(=O)CC (stereo not shown) [A74] | 5 | 4 | 5 | 5 | 5 | 4 | 5 | 5 | 5 | 5 | 5 | 5
CC(=O)OC1C(C)=C(Cl)C(=O)N1c1cc(C(C)(C)C)on1 (stereo not shown) [A75] | 5 | 4 | 5 | 4 | 4 | 3 | 5 | 5 | 5 | 5 | 5 | 5
CC1=C(Cl)C(=O)N(c2cc(C(C)(C)C)on2)C1OC(=O)C(C)C (stereo not shown) [A76] | 5 | 4 | 5 | 4 | 4 | 3 | 5 | 5 | 5 | 5 | 5 | 4
CC1=C(Cl)C(=O)N(c2cc(C(C)(C)C)on2)C1OC(=O)C(C)(C)C (stereo not shown) [A77] | 1 | 1 | 4 | 1 | 2 | 1 | 1 | 2 | 3 | 3 | 2 | 1
CCSC(=O)OC1C(C)=C(Cl)C(=O)N1c1cc(C(C)(C)C)on1 (stereo not shown) [A78] | 5 | 2 | 5 | 5 | 5 | 2 | 5 | 5 | 5 | 5 | 5 | 4
COC(=O)OC1C(C)=C(Cl)C(=O)N1c1cc(C(C)(C)C)on1 (stereo not shown) [A81] | 5 | 4 | 5 | 5 | 5 | 3 | 5 | 5 | 5 | 5 | 5 | 4
CC1=C(Cl)C(=O)N(c2cc(C(C)(C)C)on2)C1OC(=O)SCC(C)C (stereo not shown) [A82] | 1 | 0 | 3 | 1 | 1 | 0 | – | – | 2 | 2 | 2 | 1
C=COC(=O)OC1C(C)=C(Cl)C(=O)N1c1cc(C(C)(C)C)on1 (stereo not shown) [A83] | 5 | 4 | 5 | 5 | 5 | 4 | 5 | 5 | 5 | 5 | 5 | 4
CC#CCOC(=O)OC1C(C)=C(Cl)C(=O)N1c1cc(C(C)(C)C)on1 (stereo not shown) [A85] | 5 | 4 | 5 | 5 | 5 | 3 | 5 | 5 | 5 | 5 | 5 | 4
